Data from PubChem BioAssay AID330 (DTP/NCI, 2004).
Where “and” joins values, the source holds several entries; their conditions need not be identical. Identical values can stand only once. Toxic doses and inconclusive results are not listed. Rule for the calls: active = survival T/C of 150% or more; inactive = T/C below 125% in these data. Bridge positions count the residues as written; N and C are the ends. Square brackets hold non-standard residues; d marks the D form. Peptide text beside a SMILES is read from it. * marks the point of attachment. Cbz = O=C(OCc1ccccc1)*; Ava = NCCCCC(=O)O

Test system: P388 leukemia ip, CD2F1 mice, survival T/C
Experiment: NCI In Vivo Anticancer Drug Screen. Data for tumor model P388 Leukemia (intraperitoneal) in CD2F1 (CDF1) mice
Conditions: endpoint: median survival time, higher = longer survival
Procedure, shortened: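 Mice carrying the transplanted tumor received test compound or vehicle. Survival was recorded in each group, and the value is the treated-group measurement divided by that of the vehicle-treated control group.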

[1] = dose: 100.0 mg/kg/injection, schedule: Q04DX002 (ip), vehicle: saline with Tween-80
[2] = dose: 200.0 mg/kg/injection, schedule: Q04DX002 (ip), vehicle: saline with Tween-80
[3] = dose: 400.0 mg/kg/injection, schedule: Q04DX002 (ip), vehicle: saline with Tween-80
[4] = dose: 100.0 mg/kg/injection, schedule: Q04DX003 (ip), vehicle: saline with Tween-80
[5] = dose: 200.0 mg/kg/injection, schedule: Q04DX003 (ip), vehicle: saline with Tween-80
[6] = dose: 25.0 mg/kg/injection, schedule: Q01DX009 (ip), vehicle: saline with Tween-80
[7] = dose: 50.0 mg/kg/injection, schedule: Q01DX009 (ip), vehicle: saline with Tween-80
[8] = dose: 100.0 mg/kg/injection, schedule: Q01DX009 (ip), vehicle: saline with Tween-80
[9] = dose: 200.0 mg/kg/injection, schedule: Q01DX009 (ip), vehicle: saline with Tween-80
[10] = dose: 60.0 mg/kg/injection, schedule: Q01DX005 (ip), vehicle: saline with Tween-80
[11] = dose: 120.0 mg/kg/injection, schedule: Q01DX005 (ip), vehicle: saline with Tween-80
[12] = dose: 240.0 mg/kg/injection, schedule: Q01DX005 (ip), vehicle: saline with Tween-80

Measured: T/C

Cc1cc([N+](=O)[O-])cc(Cl)n1
inactive: dose: 3.12 mg/kg/injection, schedule: Q01DX009 (ip), vehicle: Klucel (hydroxypropylcellulose) (HPC) 106 % of control | dose: 6.25 mg/kg/injection, schedule: Q01DX009 (ip), vehicle: Klucel (hydroxypropylcellulose) (HPC) 99 % of control | dose: 12.5 mg/kg/injection, schedule: Q01DX009 (ip), vehicle: Klucel (hydroxypropylcellulose) (HPC) 100 % of control | dose: 25.0 mg/kg/injection, schedule: Q01DX009 (ip), vehicle: Klucel (hydroxypropylcellulose) (HPC) 106 % of control

CCN(CC)c1nc(NNC(=S)NC)nc(N(CC)CC)n1
inactive: [1] 100 % of control | [2] 98 % of control | [3] 100 % of control

Cc1ccc(S(=O)(=O)OC2CC(C(=O)O)N(S(=O)(=O)c3ccc(C)cc3)C2)cc1 (stereo unspecified)
inactive: [4] 100 % of control | [5] 95 % of control | dose: 400.0 mg/kg/injection, schedule: Q04DX003 (ip), vehicle: saline with Tween-80 95 % of control

O=C(COc1ccc(Cl)cc1Cl)Oc1c(Cl)c(Cl)c(Cl)c(Cl)c1Cl
inactive: [6] 91 % of control | [7] 91 % of control | [8] 91 % of control

Cc1cccc2c1CC(C(C)C)C2 (stereo unspecified)
inactive: [6] 111 % of control and 89 % of control | [7] 108 % of control and 96 % of control | [8] 104 % of control and 107 % of control | [9] 90 % of control

CC1NC(=O)C(NC(=O)OCc2ccccc2)COC(=O)C(C(C)C)NC(=O)CCCCNC1=O (stereo unspecified) (Cbz-SA[Ava]V; ester 1-C; configuration not given here)
inactive: [1] 100 % of control | [2] 104 % of control | [3] 104 % of control

CCOc1cc(/C=N\Nc2nncn2N)c(C)cc1N(CCCl)CCCl
inactive: dose: 50.0 mg/kg/injection, schedule: Q04DX003 (ip), vehicle: saline sonified 116 % of control

C/C(=N\NC(=S)N1CCN(c2ccccc2)CC1)c1cnccn1
inactive: dose: 1.56 mg/kg/injection, schedule: Q01DX005 (ip), vehicle: saline with Tween-80 103 % of control | dose: 3.13 mg/kg/injection, schedule: Q01DX005 (ip), vehicle: saline with Tween-80 105 % of control | dose: 6.25 mg/kg/injection, schedule: Q01DX005 (ip), vehicle: saline with Tween-80 111 % of control and 93 % of control | dose: 12.5 mg/kg/injection, schedule: Q01DX005 (ip), vehicle: saline with Tween-80 109 % of control

CCC1CN2CCc3cc(OC)c(OC)cc3C2CC1=O (stereo unspecified)
inactive: dose: 12.5 mg/kg/injection, schedule: Q01DX009 (ip), vehicle: saline 104 % of control | dose: 25.0 mg/kg/injection, schedule: Q01DX009 (ip), vehicle: saline 99 % of control | dose: 37.5 mg/kg/injection, schedule: Q04DX003 (ip), vehicle: saline with Tween-80 101 % of control | [7] 107 % of control | dose: 50.0 mg/kg/injection, schedule: Q01DX009 (ip), vehicle: saline 99 % of control and 103 % of control | dose: 75.0 mg/kg/injection, schedule: Q04DX003 (ip), vehicle: saline with Tween-80 121 % of control | [8] 112 % of control | dose: 100.0 mg/kg/injection, schedule: Q01DX009 (ip), vehicle: saline 96 % of control and 97 % of control | [9] 107 % of control | dose: 200.0 mg/kg/injection, schedule: Q01DX009 (ip), vehicle: saline 106 % of control

CCCC1CCC(=C2C(=O)CCC2=O)O1 (stereo unspecified)
inactive: dose: 25.0 mg/kg/injection, schedule: Q04DX002 (ip), vehicle: saline 102 % of control | dose: 50.0 mg/kg/injection, schedule: Q04DX002 (ip), vehicle: saline 102 % of control | [1] 110 % of control | dose: 100.0 mg/kg/injection, schedule: Q04DX002 (ip), vehicle: saline 103 % of control | [2] 102 % of control | dose: 200.0 mg/kg/injection, schedule: Q04DX002 (ip), vehicle: saline 100 % of control

O=C(N=C=S)c1ccccc1
inactive: dose: 100.0 mg/kg/injection, schedule: Q04DX003 (ip), vehicle: other 90 % of control | dose: 200.0 mg/kg/injection, schedule: Q04DX003 (ip), vehicle: other 100 % of control | dose: 400.0 mg/kg/injection, schedule: Q04DX003 (ip), vehicle: other 109 % of control

CCCCCCC(Cn1ccnc1)c1ccc(Br)cc1 (stereo unspecified)
inactive: [4] 100 % of control | [5] 91 % of control

COc1cccc2c1C(=O)c1c(O)c3c(c(O)c1C2=O)C[C@@](O)(C(C)=O)C[C@@H]3OC1CC(N=C(N)CCSSCCC(N)=NC2CC(O[C@H]3C[C@](O)(C(C)=O)Cc4c(O)c5c(c(O)c43)C(=O)c3c(OC)cccc3C5=O)OC(C)C2O)C(O)C(C)O1 (stereo partly specified)
inactive: dose: 3.12 mg/kg/injection, schedule: Q04DX003 (ip), vehicle: distilled water + Tween-80 115 % of control | dose: 6.25 mg/kg/injection, schedule: Q04DX003 (ip), vehicle: distilled water + Tween-80 108 % of control and 122 % of control | dose: 12.5 mg/kg/injection, schedule: Q04DX003 (ip), vehicle: distilled water + Tween-80 118 % of control | dose: 25.0 mg/kg/injection, schedule: Q04DX003 (ip), vehicle: distilled water + Tween-80 116 % of control | dose: 50.0 mg/kg/injection, schedule: Q04DX003 (ip), vehicle: distilled water + Tween-80 105 % of control | dose: 100.0 mg/kg/injection, schedule: Q04DX003 (ip), vehicle: distilled water + Tween-80 121 % of control

CN(C)/C(=N\O)c1ccccc1
inactive: dose: 3.12 mg/kg/injection, schedule: Q04DX003 (ip), vehicle: saline 100 % of control and 105 % of control | dose: 6.25 mg/kg/injection, schedule: Q04DX003 (ip), vehicle: saline 100 % of control and 90 % of control | dose: 12.5 mg/kg/injection, schedule: Q04DX003 (ip), vehicle: saline 100 % of control and 95 % of control

COc1ccc(C2c3cc4c(cc3OC3(O)CCCC(=O)C23)OCO4)cc1 (stereo unspecified)
inactive: [10] 100 % of control | [11] 100 % of control | [12] 93 % of control

CCCCOCN(CC(CC)CCCC)CC(CC)CCCC (stereo unspecified)
inactive: dose: 50.0 mg/kg/injection, schedule: Q01DX005 (ip), vehicle: saline with Tween-80 98 % of control | dose: 100.0 mg/kg/injection, schedule: Q01DX005 (ip), vehicle: saline with Tween-80 100 % of control | dose: 200.0 mg/kg/injection, schedule: Q01DX005 (ip), vehicle: saline with Tween-80 104 % of control

C=COc1ccccc1C1=NC(C(C)(C)C)(C(C)(C)C)P(OC)(OC)(OC)O1
inactive: dose: 100.0 mg/kg/injection, schedule: Q04DX003 (ip), vehicle: saline 102 % of control | dose: 200.0 mg/kg/injection, schedule: Q04DX003 (ip), vehicle: saline 108 % of control | dose: 400.0 mg/kg/injection, schedule: Q04DX003 (ip), vehicle: saline 100 % of control

NC(=O)CCN1CCCN(CCC(N)=O)CCN(CCC(N)=O)CCCN(CCC(N)=O)CC1
inactive: [10] 102 % of control | [11] 110 % of control | [12] 94 % of control

CN1CCC/C1=C1/CCc2ccccc2C1=O
inactive: dose: 50.0 mg/kg/injection, schedule: Q01DX005 (ip), vehicle: Klucel (hydroxypropylcellulose) (HPC) 103 % of control | dose: 100.0 mg/kg/injection, schedule: Q01DX005 (ip), vehicle: Klucel (hydroxypropylcellulose) (HPC) 108 % of control | dose: 200.0 mg/kg/injection, schedule: Q01DX005 (ip), vehicle: Klucel (hydroxypropylcellulose) (HPC) 107 % of control

CC(C)C[CH2][Ge]([CH2]CC(C)C)([CH2]CC(C)C)[CH2]CC(C)C
inactive: dose: 100.0 mg/kg/injection, schedule: Q01DX001 (ip), vehicle: saline with Tween-80 100 % of control | dose: 200.0 mg/kg/injection, schedule: Q01DX001 (ip), vehicle: saline with Tween-80 94 % of control | dose: 400.0 mg/kg/injection, schedule: Q01DX001 (ip), vehicle: saline with Tween-80 96 % of control

CCOC(=O)c1nc(Cl)cn(O)c1=N
inactive: [8] 104 % of control | [9] 99 % of control | dose: 400.0 mg/kg/injection, schedule: Q01DX009 (ip), vehicle: saline with Tween-80 93 % of control

CC1(C)CC(C)(OC(=O)c2ccc(Cl)cc2)[N+]([O-])=N1 (stereo unspecified)
inactive: dose: 12.5 mg/kg/injection, schedule: Q01DX009 (ip), vehicle: other 98 % of control | dose: 25.0 mg/kg/injection, schedule: Q01DX009 (ip), vehicle: other 98 % of control | dose: 50.0 mg/kg/injection, schedule: Q01DX009 (ip), vehicle: other 106 % of control | dose: 100.0 mg/kg/injection, schedule: Q01DX009 (ip), vehicle: other 89 % of control | dose: 200.0 mg/kg/injection, schedule: Q01DX009 (ip), vehicle: other 89 % of control
